Assay results published in patent US6579873B2, “3 (5)-heteroaryl substituted pyrazoles as p38 kinase inhibitors” (Pharmacia Corporation, priority 1997, dated 2003).

Legend:
human p38 kinase alpha [1] = target: T1, human p38 kinase alpha (Homo sapiens, UniProt Q16539); assay: p38 kinase in vitro assay, PHAS-I phosphorylation (32P-ATP); type: biochemical; details: p38α in vitro results based on PHAS-I assay procedure, read-out: P38α^1
T1 construct: The coding region of the human p38a cDNA was obtained by PCR-amplification from RNA; made in house; host or cells: E. coli DH10B
T1 sequence (Q16539 whole entry): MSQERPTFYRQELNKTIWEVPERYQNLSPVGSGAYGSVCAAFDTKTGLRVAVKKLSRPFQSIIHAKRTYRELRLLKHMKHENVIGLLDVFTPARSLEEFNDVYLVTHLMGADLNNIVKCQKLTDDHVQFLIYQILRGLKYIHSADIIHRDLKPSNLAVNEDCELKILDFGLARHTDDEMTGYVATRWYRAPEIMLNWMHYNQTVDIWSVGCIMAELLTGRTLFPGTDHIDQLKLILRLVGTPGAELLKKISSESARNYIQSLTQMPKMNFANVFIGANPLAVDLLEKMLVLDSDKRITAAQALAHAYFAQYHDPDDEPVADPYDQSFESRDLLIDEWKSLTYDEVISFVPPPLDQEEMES
Protocol: The ability of compounds to inhibit human p38 kinase alpha was evaluated using two in vitro assay methods. In the first method, activated human p38 kinase alpha phosphorylates a biotinylated substrate, PHAS-I (phosphorylated heat and acid stable protein-insulin inducible), in the presence of gamma ^32P-ATP (^32P-ATP). PHAS-I was biotinylated prior to the assay and provides a means of capturing the substrate which is phosphorylated during the assay. p38 Kinase was activated by MKK6. Compounds were tested in 10 fold serial dilutions over the range of 100 μM to 0.001 μM using 1% DMSO. Each concentration of inhibitor was tested in triplicate.
All reactions were carried out in 96 well polypropylene plates. Each reaction well contained 25 mM HEPES pH 7.5, 10 mM magnesium acetate and 50 μM unlabeled ATP. Activation of p38 was required to achieve sufficient signal in the assay. Biotinylated PHAS-I was used at 1-2 μg per 50 μl reaction volume, with a final concentration of 1.5 μM. Activated human p38 kinase alpha was used at 1 μg per 50 μl reaction volume representing a final concentration of 0.3 μM. Gamma ^32P-ATP was used to follow the phosphorylation of PHAS-I. ^32P-ATP has a specific activity of 3000 Ci/mmol and was used at 1.2 μCi per 50 μl reaction volume. The reaction Proceeded either for one hour or overnight at 30° C.
Following incubation, 20 μl of reaction mixture was transferred to a high capacity streptavidin coated filter plate (SAM-streptavidin-matrix, Promega) prewetted with phosphate buffered saline. The transferred reaction mix was allowed to contact the streptavidin membrane of the Promega plate for 1-2 minutes. Following capture of biotinylated PHAS-I with ^32P incorporated, each well was washed to remove unincorporated ^32P-ATP three times with 2M NaCl, three washes of 2M NaCl with 1% phosphoric, three washes of distilled water and finally a single wash of 95% ethanol. Filter plates were air dried and 20 μl of scintillant was added. The plates were sealed and counted.

[2] = tested on: TNF production by U937 cells; assay: LPS stimulation of TNF production by U937 cells; type: cell-based; details: Homo sapiens, U-937, LPS-stimulated TNF-α release, differentiated U937 cells, 4 hour incubation
Protocol: U937 cells (ATCC) were propagated in RPMI 1640 containing 10% Fetal bovine serum, 100 IU/ml penicillin, 100 μg/ml streptomycin, and 2 mM glutamine (Gibco). Fifty million cells in 100 ml media were induced to terminal monocytic differentiation by 24 hour incubation with 20 ng/ml phorbol 12-myristate 13-acetate (Sigma). The cells were washed by centrifugation (200×g for 5 min) and resuspended in 100 ml fresh medium. After 24-48 hours, the cells were harvested, centrifuged, and resuspended in culture medium at 2 million cells/ml.
U937 cells (0.1 ml, 2 million/ml) were incubated with 0.1 ml compound (0.004-50 μM, final concentration) for 1 hour in 96 well microtiter plates. Compounds were prepared as 10 mM stock solutions in DMSO and diluted in culture medium to yield a final DMSO concentration of 0.1% in the cell assay. LPS (E. coli, 100 ng/ml final concentration) was then added at a volume of 0.02 ml. After 4 hour incubation at 37° C., the amount of TNF-α released in the culture medium was quantitated by ELISA. Inhibitory potency is expressed as IC50 (μM).

human p38 kinase alpha [3] = target: T1, human p38 kinase alpha; assay: p38 kinase in vitro assay, EGFRP phosphorylation (33P-ATP); type: biochemical; details: p38α in vitro results based on EGFRP assay procedure, read-out: p38α^2
Protocol: A second assay format was also employed that is based on p38 kinase alpha induced phosphorylation of EGFRP (epidermal growth factor receptor peptide, a 21 mer) in the presence of ^33P-ATP. Compounds were tested in 10 fold serial dilutions over the range of 100 μM to 0.001 μM in 1% DMSO. Each concentration of inhibitor was tested in triplicate. Compounds were evaluated in 50 μl reaction volumes in the presence of 25 mM Hepes pH 7.5, 10 mM magnesium acetate, 4% glycerol, 0.4% bovine serum albumin, 0.4 mM DTT, 50 μM unlabeled ATP, 25 μg EGFRP (200 μM), and 0.05 uCi gamma ^33P-ATP. Reactions were initiated by addition of 0.09 μg of activated, purified human GST-p38 kinase alpha. Activation was carried out using GST-MKK6 (5:1,p38:MKK6) for one hour at 30° C. in the presence of 50 μM ATP. Following incubation for 60 minutes at room temperature, the reaction was stopped by addition of 150 μl of AG 1×8 resin in 900 mM sodium formate buffer, pH 3.0 (1 volume resin to 2 volumes buffer). The mixture was mixed three times with pipetting and the resin was allowed to settle. A total of 50 μl of clarified solution head volume was transferred from the reaction wells to Microlite-2 plates. 150 μl of Microscint 40 was then added to each well of the Microlite plate, and the plate was sealed, mixed, and counted.

serum TNF = assay: Mouse model of LPS-induced TNF alpha production; type: in vivo, BALB/c female mice; details: percent inhibition of serum TNF, oral gavage 6 hours prior to LPS injection, mice
Protocol: TNF alpha was induced in 10-12 week old BALB/c female mice by tail vein injection with 100 ng lipopolysaccharide (from S. Typhosa) in 0.2 ml saline. One hour later mice were bled from the retroorbital sinus and TNF concentrations in serum from clotted blood were quantified by ELISA. Typically, peak levels of serum TNF ranged from 2-6 ng/ml one hour after LPS injection.
The compounds tested were administered to fasted mice by oral gavage as a suspension in 0.2 ml of 0.5% methylcellulose and 0.025% Tween 20 in water at 1 hour or 6 hours prior to LPS injection. The 1 hour protocol allowed evaluation of compound potency at Cmax plasma levels whereas the 6 hour protocol allowed estimation of compound duration of action. Efficacy was determined at each time point as percent inhibition of serum TNF levels relative to LPS injected mice that received vehicle only.

“4-(4-fluorophenyl)-3-(4-pyridinyl)-1H-pyrazole-1-ethanol and 4-(4-fluorophenyl)-5-(4-pyridinyl)-1H-pyrazole-1-ethanol [Example 11]” gave an IC50 (human p38 kinase alpha [1]) of 0.695 µM.

With “4-(4-fluorophenyl)-N,N-dimethyl-3-(4-pyridinyl)-1H-pyrazole-1-ethanamine and 4-(4fluorophenyl)-N,N-dimethyl-5-(4-pyridinyl)-1H-pyrazole-1-ethanamine [Example 12]” the IC50 (human p38 kinase alpha [1]) was 0.941 µM.

Molecule “4-[2-[4-(4-fluorophenyl)-3-(4-pyridinyl)-1H-pyrazol-1-yl]ethyl]morpholine and 4-[2-[4-(4-fluorophenyl)-5-(4-pyridinyl)-1H-pyrazol-1-yl]ethyl]morpholine [Example 13]” has an IC50 (human p38 kinase alpha [1]) of 0.86 µM.

In the case of Cc1n[nH]c(-c2ccncc2)c1-c1ccccc1 [Example 1, 4-(3-methyl-4-phenyl-1H-pyrazol-5-yl)pyridine], the melting point is reported as 164 to 165 °C, the IC50 [2] is reported as no less than 10 µM and the IC50 (human p38 kinase alpha [3]) is reported as 13.3 µM. It also gave an IC50 (human p38 kinase alpha [1]) of 30 µM.

Molecule Nc1n[nH]c(-c2ccncc2)c1-c1ccc(F)cc1 [Example 2, 4-(4-fluorophenyl)-5-(4-pyridinyl)-1H-pyrazol-3-amine] has a melting point of 178 to 180 °C, an IC50 [2] of 10.6 µM and an IC50 (human p38 kinase alpha [3]) of 6.21 µM.

Molecule CS(=O)(=O)Nc1n[nH]c(-c2ccncc2)c1-c1ccc(F)cc1 [Example 3, N-[4 (4-fluorophenyl)-5-(4-pyridinyl)-1H-pyrazol-3-yl]methanesulfonamide] has a melting point of 168 to 170 °C, an IC50 [2] greater than 10 µM and an IC50 (human p38 kinase alpha [3]) of 2.55 µM.

In the case of CNS(=O)(=O)Nc1n[nH]c(-c2ccncc2)c1-c1ccc(F)cc1 [Example 4, N-[4-(4-fluorophenyl)-5-(4-pyridinyl)-1H-pyrazol-3-yl]-N′-methylsulfamide], the melting point is reported as 194 to 195 °C, the IC50 [2] is reported as 4.7 µM and the “mLPS (6 h @ (30 mpk))” value (serum TNF) is reported as 54%. It also gave an IC50 (human p38 kinase alpha [3]) of 0.23 µM.

NC(=O)Nc1n[nH]c(-c2ccncc2)c1-c1ccc(F)cc1 [Example 5, [4-(4-fluorophenyl)-5-(4-pyridinyl)-1H-pyrazol-3-yl]urea] showed an IC50 [2] of 5.53 µM and an IC50 (human p38 kinase alpha [1]) of 1.98 µM.

Work on Cn1nc(-c2ccncc2)c(-c2ccc(Cl)cc2)c1N [Example 7, 4-(4-chlorophenyl)-1-methyl-3-(4-pyridinyl)-1H-pyrazol-5-amine] yielded a melting point of 257 to 258 °C, an IC50 [2] of no less than 10 µM and an IC50 (human p38 kinase alpha [3]) of 5.48 µM.

With CNC(=O)Nc1n[nH]c(-c2ccncc2)c1-c1ccc(F)cc1 [Example 8, N-[4-(4-fluorophenyl)-5-(4-pyridinyl)-1H-pyrazol-3-yl]-N′-methylurea] the melting point was 212 to 213 °C and the IC50 [2] was no less than 10 µM.

With Fc1ccc(-c2cn[nH]c2-c2ccncc2)cc1 [Example 9, 4-[4-(4-fluorophenyl)-1H-pyrazol-3-yl]pyridine] the IC50 [2] was 0.647 µM, the “mLPS (6 h @ (30 mpk))” value (serum TNF) was 42% and the IC50 (human p38 kinase alpha [3]) was 3.46 µM. The IC50 (human p38 kinase alpha [1]) was 2.44 µM.

In the case of Cn1cc(-c2ccc(F)cc2)c(-c2ccncc2)n1 [Example 10, 4-[4-(4-fluorophenyl)-1-methyl-1H-pyrazol-3-yl]pyridine], the IC50 [2] is reported as 1.6 µM, the “mLPS (6 h @ (30 mpk))” value (serum TNF) is reported as 76% and the IC50 (human p38 kinase alpha [3]) is reported as 0.4 µM. The IC50 (human p38 kinase alpha [1]) was 7.23 µM.

With Clc1ccc(-c2c[nH]nc2-c2ccncc2)cc1 [Example 15, 4-[4-(4-chlorcophenyl)-1H-pyrazol-3-yl]pyridine] the “mLPS (6 h @ (30 mpk))” value (serum TNF) was 32%, the IC50 (human p38 kinase alpha [3]) was 0.75 µM and the IC50 (human p38 kinase alpha [1]) was 5.9 µM.
